Laboratory results published in PubChem BioAssay AID1963967 (Molecular Pharmacology Branch, DTP, NCI, 2024).

System: 855422-203-R-J1-PDC spheroids with HUVEC/MSC, viability
Assay: Anticancer human tumor 855422-203-R-J1-PDC patient-derived bladder carcinoma cell line growth inhibition [PI3K]
Conditions: for viability, T/C: stronger effect = lower value
Source text: Combinatorial screen of targeted agents with the PI3K inhibitors inavolisib, alpelisib, duvelisib, and copanlisib in multi-cell type tumor spheroids
A high-throughput screen of multi-cell type tumor spheroids was designed to identify active combinations of targeted small molecules and PI3K pathway inhibitors. Complex spheroids include a stromal component modeled by human endothelial cells (HUVEC) and fibroblasts modeled by human mesenchymal stem cells (MSCs). The concentration ranges selected for each drug and investigational agent were based upon clinically achievable concentrations if the clinical Cmax of the agent was known.
Compounds. The drugs and investigational agents: inavolisib (NSC800729), alpelisib (NSC765974), duvelisib (NSC772469), copanlisib (NSC816437), ipatasertib (NSC767898), afuresertib (NSC778305), talazoparib (NSC767125), sapanisertib (NSC764658), selumetinib (NSC741078), tovorafenib (DAY101, NSC766906), vemurafenib (NSC761431), ravoxertinib (NSC781343), sotorasib (NSC818433), MRTX1133 (NSC 836407), abemaciclib (NSC 768073), palbociclib (NSC758247), venetoclax (NSC 766270), SY5609 (NSC837396), enzalutamide (NSC755605), and darolutamide (NSC825331), were obtained from the National Cancer Institute (NCI) Developmental Therapeutics Program Chemical Repository. The FDA-approved anticancer drug set is available from the NCI Developmental Therapeutics Program. […] The stock solutions were prepared in dimethyl sulfoxide (DMSO, Sigma-Aldrich, St. Louis, MO, cat. D2650) at 800-fold the tested concentration and stored at -70 degrees C prior to their use. All drugs and investigational agents were tested over a range starting from a high concentration at or near the clinical Cmax and decreasing in half-log increments. If the clinical Cmax for an agent had not been determined, the highest concentration tested was 10 microM.
Cell Culture. All cells were maintained in an incubator at 37 degrees C and 5% CO2 with 95% humidity. The PDC lines were cultured according to standard operating procedures established by the NCI PDMR (https://pdmr.cancer.gov/sops/default.htm). All PDCs were thawed and cultured in Matrigel-coated flasks prepared with a working solution of 1X Ham's F-12 nutrient mix, without supplementation (Invitrogen, Waltham, MA, cat. 11765054), 100 U/mL penicillin-streptomycin (Invitrogen, cat. 15140122), and 2.5% Matrigel (Corning Inc., Corning, NY, cat. 354248) for the first three passages. The 354836-022-R-J1-PDC, 475296-252-R-J1-PDC, and 997726-040-R-J2-PDC lines were cultured in 6A media, which includes advanced DMEM/F-12 (Thermo Fisher Scientific, cat. 12634028), 10 mM HEPES (Thermo Fisher Scientific, cat. 15630080), 1X GlutaMAX supplement (Thermo Fisher Scientific, cat. 35050061), 0.1 mg/mL primocin (InvivoGen, San Diego, CA, cat. ant-pm-2), 10% defined fetal bovine serum, heat inactivated (HyClone Laboratories Inc., Logan, UT, cat. SH30070.03HI), 50% L-WRN conditioned media (ATCC, cat. CRL-3276), 1.25 mM N-Acetyl-L-cysteine (Sigma-Aldrich, cat. A9165), 10 mM nicotinamide (Sigma-Aldrich, cat. N0636), 1X B-27 supplement (Thermo Fisher Scientific, cat. 17504044), 1X N-2 supplement (Thermo Fisher Scientific, cat. 17502048), and 10 microM Y-27632 dihydrochloride (Tocris Bioscience, Bristol, United Kingdom, cat. 1254). The 624824-186-R-J2-PDC line was cultured in 6C/Colon 1B media, which includes all 6A media components plus 50 ng/mL human EGF recombinant protein (Thermo Fisher Scientific, cat. PHG0311). […]
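Further: agents incubated with spheroids for one week before read-out.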
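Wherever viability, T/C is given: 100% = DMSO vehicle-treated control wells.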

With `CC(Cn1ccc(-c2ccc(C#N)c(Cl)c2)n1)NC(=O)c1cc(C(C)O)[nH]n1` (stereo unspecified) the viability, T/C (compound 0.0316 µM) was 108% [middle of 4 runs], the viability, T/C (compound 0.1 µM) was 96.9% [middle of 4 runs] and the viability, T/C (compound 0.316 µM) was 110% [middle of 4 runs]. For the same compound, the viability, T/C (compound 1 µM) was 93.5% [middle of 4 runs], the viability, T/C (compound 3.16 µM) was 97.2% [middle of 4 runs] and the viability, T/C (compound 10 µM) was 86.2% [middle of 4 runs]. The IC50 (curve of compound) was > 10000 nM.
For `CC(Nc1ccc2c(c1)OCCn1cc(N3C(=O)OCC3C(F)F)nc1-2)C(N)=O` (stereo unspecified), the viability, T/C (compound 0.00316 µM) was 107% [middle of 8 runs], the viability, T/C (compound 0.01 µM) was 104% [middle of 8 runs] and the viability, T/C (compound 0.0316 µM) was 98.5% [middle of 8 runs]. For the same compound, the viability, T/C (compound 0.1 µM) was 76.7% [middle of 8 runs], the viability, T/C (compound 0.316 µM) was 50.6% [middle of 8 runs] and the viability, T/C (compound 1 µM) was 35.6% [middle of 8 runs]. The IC50 (compound alone, run of 05/08/2023) was 300 nM [middle of 8 runs].
In the case of `CC1(C)CCC(Nc2ncc(C(F)(F)F)c(-c3c[nH]c4c(P(C)(C)=O)c(C#N)ccc34)n2)CN1` (stereo unspecified) + CC(Nc1ncnc2nc[nH]c12)c1cc2cccc(Cl)c2c(=O)n1-c1ccccc1, the IC50 (curve of first compound, second compound 0.0316 µM) is reported as < 31.6 nM, the IC50 (curve of first compound, second compound 0.1 µM) is reported as < 31.6 nM and the IC50 (curve of first compound, second compound 0.316 µM) is reported as < 31.6 nM. For the same compound, the IC50 (curve of first compound, second compound 1 µM) was < 31.6 nM, the IC50 (curve of first compound, second compound 3.16 µM) was < 31.6 nM and the IC50 (curve of first compound, second compound 10 µM) was < 31.6 nM. It also gave a viability, T/C (second compound 0.0316 µM, first compound 0.0316 µM) of 30.3%, a viability, T/C (second compound 0.0316 µM, first compound 0.1 µM) of 24.1% and a viability, T/C (second compound 0.0316 µM, first compound 0.316 µM) of 25%. The viability, T/C (second compound 0.0316 µM, first compound 1 µM) was 26.8%, the viability, T/C (second compound 0.0316 µM, first compound 3.16 µM) was 28.9% and the viability, T/C (second compound 0.0316 µM, first compound 10 µM) was 3.47%. For the same compound, the viability, T/C (second compound 0.1 µM, first compound 0.0316 µM) was 27.4%, the viability, T/C (second compound 0.1 µM, first compound 0.1 µM) was 25% and the viability, T/C (second compound 0.1 µM, first compound 0.316 µM) was 24.6%. It also gave a viability, T/C (second compound 0.1 µM, first compound 1 µM) of 27%, a viability, T/C (second compound 0.1 µM, first compound 3.16 µM) of 30.2% and a viability, T/C (second compound 0.1 µM, first compound 10 µM) of 5.41%. For the same compound, the viability, T/C (second compound 0.316 µM, first compound 0.0316 µM) was 27.2%, the viability, T/C (second compound 0.316 µM, first compound 0.1 µM) was 24.9% and the viability, T/C (second compound 0.316 µM, first compound 0.316 µM) was 23.8%. For the same compound, the viability, T/C (second compound 0.316 µM, first compound 1 µM) was 27.5%, the viability, T/C (second compound 0.316 µM, first compound 3.16 µM) was 31.6% and the viability, T/C (second compound 0.316 µM, first compound 10 µM) was 4.23%. It also gave a viability, T/C (second compound 1 µM, first compound 0.0316 µM) of 24.2%, a viability, T/C (second compound 1 µM, first compound 0.1 µM) of 28.2% and a viability, T/C (second compound 1 µM, first compound 0.316 µM) of 27.2%. The viability, T/C (second compound 1 µM, first compound 1 µM) was 26.7%, the viability, T/C (second compound 1 µM, first compound 3.16 µM) was 26% and the viability, T/C (second compound 1 µM, first compound 10 µM) was 5.15%. For the same compound, the viability, T/C (second compound 3.16 µM, first compound 0.0316 µM) was 23%, the viability, T/C (second compound 3.16 µM, first compound 0.1 µM) was 23.1% and the viability, T/C (second compound 3.16 µM, first compound 0.316 µM) was 24.6%. The viability, T/C (second compound 3.16 µM, first compound 1 µM) was 23.9%, the viability, T/C (second compound 3.16 µM, first compound 3.16 µM) was 26.6% and the viability, T/C (second compound 3.16 µM, first compound 10 µM) was 2.74%. It also gave a viability, T/C (second compound 10 µM, first compound 0.0316 µM) of 23.8%, a viability, T/C (second compound 10 µM, first compound 0.1 µM) of 21.4% and a viability, T/C (second compound 10 µM, first compound 0.316 µM) of 18.8%. For the same compound, the viability, T/C (second compound 10 µM, first compound 1 µM) was 23.7%, the viability, T/C (second compound 10 µM, first compound 3.16 µM) was 18.9% and the viability, T/C (second compound 10 µM, first compound 10 µM) was 1.26%.
